In patent publication US5500416A, “Percutaneous absorption promoting agent and dermatologic preparation containing the same” (priority 1987, dated 1996):

Test system: enucleated skin of a hairless mouse
Test: Drug permeability test by in vitro diffusion cell
Type: in vitro ADME
Details: pH 7.2
Description: A drug permeability test was conducted for amine oxide, which is the product of the present invention.
Pharmaceutical samples comprising the following composition were prepared.
For an evaluation of the percutaneous absorption promoting effect of a drug with the test substance, a drug permeability test was conducted by in vitro diffusion cell, using the enucleated skin of a hairless mouse. As the diffusion cell device, a vertical film type 2-compartment cell with a diffusion area of 2 cm^2 was employed. The whole skin layer at the back of a 10 to 15 weeks old male hairless mouse was enucleated and mounted on a diffusion cell. In the cell compartment on the medicament sample side, 2 ml of a medicament sample was placed, and 2 ml of a phosphate buffer phisiological saline (pH 7.2) was placed in the cell compartment on the receptor side, and the whole cell maintained at 32° C. in a thermostat tank while gently stirring both phases. After 24 hours, the receptor solution was sampled and the amount of the drug permeated by high performance chromatography to the receptor side quantitated.

Compound | Drug permeability | Drug permeability (Table 5-1, hydroquinone 1.0%, test substance 0.1%, ethanol 20%, 24 hours, 32° C.)
CCCCCCCCCCCCCCCCCCCCCC[N+](C)(C)[O-] [Example 5-2, Dimethylbehenylamine oxide] | 28.6% | 
CCCCCCCCCCCC[N+](C)(C)[O-] [Example 5-4, Dimethyllaurylamine oxide] |  | 9.4%
CCCCCCCCCCCCCC[N+](C)(C)[O-] [Example 5-5, Dimethylmyristylamine oxide] | 11.8% | 

Continued, values first:

Drug permeability | Drug permeability (Table 5-1, hydroquinone 1.0%, test substance 0.1%, ethanol 20%, 24 hours, 32° C.) | Compound
44.0% |  | CCCCCCCCCCCCCCCCCC[N+](C)(C)[O-] [Example 5-1, Dimethylstearylamine oxide]
30.5% |  | CCCCCCCCCCCCCCCCCC[N+]([O-])(CCO)CCO [Example 5-3, Dihyroxyethylstearylamine oxide]
